From patent EP4786454A1, “HETEROARYL DERIVATIVE AND USE THEREOF” (priority 2023, dated 2025) come the findings set out here.

For one data set, the system named is MDR1-MDCK I cell line. The data set can be described thus: Permeability evaluation, bidirectional transport (P-gp substrate). The note with it: 2.00 µM, 90 minutes. The data set is classed as in vitro ADME. How it is done: (§1) The purpose of this study was to evaluate and study the P-gp substrate of the compounds in MDR1 […] cells.
(§2) Transport assay: The test sample, nadolol, and metoprolol were administered at a concentration of 2.00 µM, and digoxin was administered at a concentration of 10.0 µM. The administration was performed bidirectionally (A-B and B-A directions), with two replicates for each administration concentration. The dosing solution, receiving solution, and transport buffer were pre-incubated in a 37.0 °C water bath for 30 minutes. The cell layer was rinsed twice with transport buffer. The dosing solution and receiving solution were added to the corresponding wells of the cell plate, respectively (75.0 µL to each apical well and 250 µL to each basolateral well, respectively). After the addition of samples, the cell plate was incubated in an incubator at 37.0°C, 5.0% CO2 and saturated humidity for 90 minutes. The initial dosing solution was used as the T0 sample. After 90 minutes of incubation, samples were collected from each well and labeled as A-B receiver, B-A receiver, A-B donor, and B-A donor, respectively. After the sample collection, all samples were mixed with an appropriate volume of transport buffer and stop solution. All samples were vortexed, and then centrifuged at 20.0 °C and 3220 × g for 10 minutes. An appropriate volume of the supernatant was transferred to a sample analysis plate. After sealing the plate, the samples were stored at 2.0 to 8.0 °C if not analyzed immediately. Analysis was performed using LC-MS/MS.
(§3) Cell membrane integrity assay: After the transport assay, the integrity of the MDR1-MDCK II cell layer was assayed by the Lucifer Yellow Rejection Assay. The remaining solution in the apical and basolateral wells was removed. 75.0 µL of transport buffer containing 100 µM Lucifer Yellow was added to the apical well, and 250 µL of transport buffer was added to the basolateral well, respectively. The cell plate was incubated in a cell culture incubator at 37 °C, 5% CO2 and saturated humidity for 30 minutes. Then, 20.0 µL of sample was taken from the apical end and mixed with 60.0 µL of transport buffer, and 80.0 µL of sample was taken from the basolateral end. The relative fluorescence unit (RFU) was measured at 425/528 nm (excitation/emission) using a microplate reader.
(§4) In this study, the sample analysis of the compounds and control compounds of nadolol, metoprolol, and digoxin was performed using LC-MS/MS. The retention time of the analytes and internal standards, chromatogram acquisition, and chromatogram integration were processed using the software Analyst (Sciex, Framingham, MA, USA). […] Semi-quantitative determination was performed using the ratio of the peak area of analyte to the peak area of internal standard.
(§5) The apparent permeability coefficient (Papp, cm/s), efflux ratio (ER), and recovery rate (%Solution Recovery) were calculated using the following formulas. Papp = (VR)/(Area × Time) × ([drug]receiver)/([drug]initial, donor) = (VR)/(Area × Time) × (CR)/(C0) [formula] Efflux Ratio = (Papp (B−A))/(Papp (A−B)) [formula] %Solution Recovery = (CR × VR + CD × VD)/(C0 × VD) × 100 [formula]
(§6) VR is the volume of the receiver solution (0.0750 mL for side A, and 0.250 mL for side B); Area is the surface area of the cell monolayer (0.143 cm^2); Time is the incubation time (5400 s); C0 is the initial peak area ratio of the test compound or the control compound at the donor; VD is the volume of the donor (0.0750 mL for side A, and 0.250 mL for side B); CD and CR are the peak area ratios of the test compound or the control compound at the donor and the receiver, respectively. The transmittance of Lucifer Yellow (%Lucifer Yellow) was calculated using the following formula: %Lucifer Yellow = (VBasolateral × RFUBasolateral)/(VApical × RFUApical + VBasolateral × RFUBasolateral) × 100 [formula]
(§7) RFUApical and RFUBasolateral are the relative fluorescence units of Lucifer Yellow at the apical and basolateral ends, respectively. […]

The next data set has as its system P-gp (MDR1). The data set is described as above. It is filed as in vitro ADME. Conditions: dog, MDCK-MDR1; efflux ratio Papp (B-A)/Papp (A-B); read-out: HMDR1 ER. The method, then: as §1, §2, §3, §4, §5, §6, §7

Regarding `CC(C)(C)CC(=O)Nc1nc2c(F)cc(C#N)cn2c1-c1ccc(OC(F)(F)F)cc1` [Compound 1], in the data set on MDR1-MDCK I cell line, the “HMDR1 Papp A to B” value was 3.64 10^-6 cm/s and the “HMDR1 Papp B to A” value is given as 18.3 10^-6 cm/s. Moreover, the efflux ratio at 90 min, 2 µM with P-gp (MDR1) was 5.04.
Regarding `CC(C)(C)CC(=O)Nc1nc2c(F)cc(C#N)cn2c1C1=CCCC1` [Compound 3], in the data set on MDR1-MDCK I cell line, the “HMDR1 Papp A to B” value is given as 7.52 10^-6 cm/s and the “HMDR1 Papp B to A” value was 31.2 10^-6 cm/s. Besides, the efflux ratio with P-gp (MDR1) was found to be 4.15.
The matching figures for `CC(C)(C)CC(=O)Nc1nc2c(F)cc(C#N)cn2c1C12CC(C1)C2` [Compound 5]: 12.4 10^-6 cm/s, 42.4 10^-6 cm/s and 3.41.
